Where two headings read alike, the source gives them in different places. Bounds are passed on as bounds.

In patent publication US20090275583A1, “ANTIVIRAL COMPOUNDS AND USE THEREOF” (Myriad Genetics, Incorporated, priority 2006, published 2009) one finds IC50 data, which are given here for 39 compounds.

The assay has as its system HIV-1NL4-3. In words: P4-MAGI assay. It counts as cell-based. The text has this:
P4 cells were used to test the effects of compounds on virus fusion activity. P4 cells are HIV-1 infectable CD4^+ HeLa cells that bear the bacterial lacZ gene under the control of a minimal HIV-1 LTR. Charneau, et. al., J. Mol. Biol. 241:651-662 (1994). When these cells are infected with HIV-1, β-galactosidase is expressed due to Tat activation of the viral LTR. In this assay, P4 cells were infected with the laboratory adapted strain HIV-1NL4-3 at a multiplicity of infection of 1 in the presence of DEAE-Dextran. Immediately after addition of virus to the cells, increasing concentrations of compound were added to the cells. […] The effect on cell viability (TC50, concentration of compound that inhibits growth by 50%) was determined in mock-infected cells with the WST-1 Cell Proliferation Reagent (Roche Diagnostics).

Setting [1] is: Human immunodeficiency virus 1, 24 h, P4 cells, 24 hour incubation, β-galactosidase expression, read-out: P4-MAGI IC50.
Where [2] appears, read: Human immunodeficiency virus 1, text statement, less than about 100 nm, read-out: P4-MAGI assay IC50.

On to `CC(O)(CO)[C@@H]1CC[C@]2(C(=O)NCc3cccc(C(=O)NCCCCC(=O)O)c3)CC[C@]3(C)C(CCC4[C@@]5(C)CC[C@H](O)C(C)(C)C5CC[C@]43C)C12` (single isomer, unassigned) [Example 139], for which, under setting [1], the IC50 (usually the midpoint of a concentration-inhibition curve) turned out to be 1500 nM. Regarding `CC(O)(CO)[C@@H]1CC[C@]2(C(=O)NCc3cccc(C(=O)NCCCCC(=O)O)c3)CC[C@]3(C)C(CCC4[C@@]5(C)CC[C@H](O)C(C)(C)C5CC[C@]43C)C12` (single isomer, unassigned) [Example 140], where the note is “P4 cells, 24 hour incubation, β-galactosidase expression, read-out: P4-MAGI IC50”, the IC50 turned out to be 1600 nM. With `C=C(C)[C@@H]1CC[C@]2(C(=O)NCc3cccc(C(=O)NCc4ccccc4C(=O)O)c3)CC[C@]3(C)C(CCC4[C@@]5(C)CC[C@H](O)C(C)(C)C5CC[C@]43C)C12` (stereo partly drawn) [Example 8], under setting [1], the IC50 was determined as 875 nM. As to `C=C(C)[C@@H]1CC[C@]2(C(=O)NCc3cccc(C(=O)NCCc4cccc(C(=O)O)c4)c3)CC[C@]3(C)C(CCC4[C@@]5(C)CC[C@H](O)C(C)(C)C5CC[C@]43C)C12` (stereo partly drawn) [Example 11], the IC50 runs as follows: under setting [1], 55 nM; under setting [2], < 100 nM. `C=C(C)[C@@H]1CC[C@]2(C(=O)NCc3cccc(C(=O)Nc4ccc(O)c(C(=O)O)c4)c3)CC[C@]3(C)C(CCC4[C@@]5(C)CC[C@H](O)C(C)(C)C5CC[C@]43C)C12` (stereo partly drawn) [Example 12]: under setting [1], the IC50 is 7200 nM. Regarding `C=C(C)[C@@H]1CC[C@]2(C(=O)NCc3cccc(C(=O)Nc4ccc(C(=O)O)cc4)c3)CC[C@]3(C)C(CCC4[C@@]5(C)CC[C@H](O)C(C)(C)C5CC[C@]43C)C12` (stereo partly drawn) [Example 14], under setting [1], the half-maximal inhibitory concentration (IC50) turned out to be 1800 nM.

For `C=C(C)[C@@H]1CC[C@]2(C(=O)NCc3cccc(C(=O)Nc4cccc(C(=O)O)c4)c3)CC[C@]3(C)C(CCC4[C@@]5(C)CC[C@H](O)C(C)(C)C5CC[C@]43C)C12` (stereo partly drawn) [Example 15], the IC50 under setting [1] was 320 nM. With `C=C(C)[C@@H]1CC[C@]2(C(=O)NCc3cccc(C(=O)NC4(Cc5ccc(C(=O)O)cc5)CC4)c3)CC[C@]3(C)C(CCC4[C@@]5(C)CC[C@H](O)C(C)(C)C5CC[C@]43C)C12` (stereo partly drawn) [Example 28], the IC50 under setting [1] is 1200 nM.

As for `C=C(C)[C@@H]1CC[C@]2(C(=O)NCc3cccc(C(=O)NCc4cccc(Br)c4)c3)CC[C@]3(C)C(CCC4[C@@]5(C)CC[C@H](O)C(C)(C)C5CC[C@]43C)C12` (stereo partly drawn) [Example 30], the IC50 under setting [1] was 410 nM.

Regarding `C=C(C)[C@@H]1CC[C@]2(C(=O)NCc3cccc(C(=O)NCc4cc(C(=O)O)ccn4)c3)CC[C@]3(C)C(CCC4[C@@]5(C)CC[C@H](O)C(C)(C)C5CC[C@]43C)C12` (stereo partly drawn) [Example 31], the IC50 under setting [1] amounted to 573 nM. Regarding `C=C(C)[C@@H]1CC[C@]2(C(=O)NCc3cccc(C(=O)NCCc4cc(OC)cc(OC)c4)c3)CC[C@]3(C)C(CCC4[C@@]5(C)CC[C@H](O)C(C)(C)C5CC[C@]43C)C12` (stereo partly drawn) [Example 44], the IC50 is, setting by setting: under setting [1], 52 nM; under setting [2], < 100 nM. On to `C=C(C)[C@@H]1CC[C@]2(C(=O)NCc3cccc(C(=O)NCc4ccc(OC)cc4OC)c3)CC[C@]3(C)C(CCC4[C@@]5(C)CC[C@H](O)C(C)(C)C5CC[C@]43C)C12` (stereo partly drawn) [Example 46], for which the IC50 under setting [1] amounted to 59 nM and the IC50 under setting [2] is < 100 nM. Regarding `C=C(C)[C@@H]1CC[C@]2(C(=O)NCCc3ccccc3C(=O)NCCCCC(=O)O)CC[C@]3(C)C(CCC4[C@@]5(C)CC[C@H](O)C(C)(C)C5CC[C@]43C)C12` (stereo partly drawn) [Example 54], under setting [1], the IC50 is 3400 nM. Consider `C=C(C)[C@@H]1CC[C@]2(C(=O)NCCc3ccccc3C(=O)NCCCCCCC(=O)O)CC[C@]3(C)C(CCC4[C@@]5(C)CC[C@H](O)C(C)(C)C5CC[C@]43C)C12` (stereo partly drawn) [Example 55], for which the IC50 under setting [1] turned out to be 4700 nM.

`C=C(C)[C@@H]1CC[C@]2(C(=O)NCCc3cccc(C(=O)NCC(=O)O)c3)CC[C@]3(C)C(CCC4[C@@]5(C)CC[C@H](O)C(C)(C)C5CC[C@]43C)C12` (stereo partly drawn) [Example 64]: the IC50 under setting [1] came out at 220 nM. As for `C=C(C)[C@@H]1CC[C@]2(C(=O)NCCc3cccc(C(=O)NCC(=O)NC)c3)CC[C@]3(C)C(CCC4[C@@]5(C)CC[C@H](O)C(C)(C)C5CC[C@]43C)C12` (stereo partly drawn) [Example 71], the IC50 under setting [1] amounted to 2700 nM. `C=C(C)[C@@H]1CC[C@]2(C(=O)NCCc3cccc(C(=O)N[C@@H](CCC(=O)OC)C(N)=O)c3)CC[C@]3(C)C(CCC4[C@@]5(C)CC[C@H](O)C(C)(C)C5CC[C@]43C)C12` (stereo partly drawn) [Example 77]: under setting [1], the IC50 came to 106 nM. On the same count and under the same terms, to `C=C(C)[C@@H]1CC[C@]2(C(=O)NCc3cccc(CNC(=O)c4ccc(C(=O)O)c(C(=O)O)c4)c3)CC[C@]3(C)C(CCC4[C@@]5(C)CC[C@H](O)C(C)(C)C5CC[C@]43C)C12` (stereo partly drawn) [Example 78] belongs 7000 nM; to `C=C(C)[C@@H]1CC[C@]2(C(=O)NCc3cccc(CNC(=O)c4cc(C(=O)O)ccc4C(=O)O)c3)CC[C@]3(C)C(CCC4[C@@]5(C)CC[C@H](O)C(C)(C)C5CC[C@]43C)C12` (stereo partly drawn) [Example 79], 412 nM. Turning to `C=C(C)[C@@H]1CC[C@]2(C(=O)NCc3cccc(C(=O)NCc4cccc(C(=O)O)c4C)c3C)CC[C@]3(C)C(CCC4[C@@]5(C)CC[C@H](O)C(C)(C)C5CC[C@]43C)C12` (stereo partly drawn) [Example 81], the IC50 under setting [1] is 6200 nM.

For `C=C(C)[C@@H]1CC[C@]2(C(=O)NCC(C)c3cccc(C(=O)NCc4cccc(C(=O)O)c4)c3)CC[C@]3(C)C(CCC4[C@@]5(C)CC[C@H](O)C(C)(C)C5CC[C@]43C)C12` (stereo partly drawn) [Example 82], the IC50 under setting [1] stood at 150 nM. Regarding `C=C(C)[C@@H]1CC[C@]2(C(=O)NCC(C)c3cccc(C(=O)NCc4cccc(C(=O)O)c4C)c3)CC[C@]3(C)C(CCC4[C@@]5(C)CC[C@H](O)C(C)(C)C5CC[C@]43C)C12` (stereo partly drawn) [Example 83], the IC50 under setting [1] was 270 nM. For the compound `C=C(C)[C@@H]1CC[C@]2(C(=O)Nc3cccc(C(=O)NCCc4cccc(C(=O)O)c4)c3)CC[C@]3(C)C(CCC4[C@@]5(C)CC[C@H](O)C(C)(C)C5CC[C@]43C)C12` (stereo partly drawn) [Example 85], the IC50 under setting [1] was 10000 nM. As to `C=C(C)[C@@H]1CC[C@]2(C(=O)NCc3cccc(C(=O)O)n3)CC[C@]3(C)C(CCC4[C@@]5(C)CC[C@H](O)C(C)(C)C5CC[C@]43C)C12` (stereo partly drawn) [Example 86], the IC50 under setting [1] stood at 3600 nM. Take `C=C(C)[C@@H]1CC[C@]2(C(=O)NCc3ccc(C(=O)OC)o3)CC[C@]3(C)C(CCC4[C@@]5(C)CC[C@H](O)C(C)(C)C5CC[C@]43C)C12` (stereo partly drawn) [Example 87]: the IC50 under setting [1] turned out to be 1400 nM. `C=C(C)[C@@H]1CC[C@]2(C(=O)NCc3ccc(C(=O)O)o3)CC[C@]3(C)C(CCC4[C@@]5(C)CC[C@H](O)C(C)(C)C5CC[C@]43C)C12` (stereo partly drawn) [Example 88]: the IC50 under setting [1] amounted to 6900 nM. Turning to `C=C(C)[C@@H]1CC[C@]2(C(=O)NCc3ccc(C(=O)NCc4ccc(C(=O)OC)o4)o3)CC[C@]3(C)C(CCC4[C@@]5(C)CC[C@H](O)C(C)(C)C5CC[C@]43C)C12` (stereo partly drawn) [Example 89], the IC50 under setting [1] is 2300 nM. On to `C=C(C)[C@@H]1CC[C@]2(C(=O)NCc3ccc(C(=O)NCc4ccc(C(=O)O)o4)o3)CC[C@]3(C)C(CCC4[C@@]5(C)CC[C@H](O)C(C)(C)C5CC[C@]43C)C12` (stereo partly drawn) [Example 90], for which the IC50 under setting [1] worked out at 6500 nM. For `C=C(C)[C@@H]1CC[C@]2(C(=O)NCc3cccc(C(=O)NCc4cccc(C(=O)O)n4)n3)CC[C@]3(C)C(CCC4[C@@]5(C)CC[C@H](O)C(C)(C)C5CC[C@]43C)C12` (stereo partly drawn) [Example 91], under setting [1], the IC50 is 3900 nM. Take `C=C(C)[C@@H]1CC[C@]2(C(=O)NCc3ccc(F)c(C(=O)NCCc4ccc(C(=O)OC)cc4)c3)CC[C@]3(C)C(CCC4[C@@]5(C)CC[C@H](O)C(C)(C)C5CC[C@]43C)C12` (stereo partly drawn) [Example 104]: the IC50 under setting [1] was found to be 350 nM. As for `C=C(C)[C@@H]1CC[C@]2(C(=O)NCc3ccc(F)c(C(=O)NCCc4cccc(C(=O)OC)c4)c3)CC[C@]3(C)C(CCC4[C@@]5(C)CC[C@H](O)C(C)(C)C5CC[C@]43C)C12` (stereo partly drawn) [Example 106], the IC50 under setting [1] is 1300 nM. Take `C=C(C)[C@@H]1CC[C@]2(C(=O)NCc3ccc(F)c(C(=O)NCc4cccc(C(=O)OC)c4)c3)CC[C@]3(C)C(CCC4[C@@]5(C)CC[C@H](O)C(C)(C)C5CC[C@]43C)C12` (stereo partly drawn) [Example 110]: the IC50 under setting [1] amounted to 856 nM.

Turning to `C=C(C)[C@@H]1CC[C@]2(C(=O)NCCc3ccc(OCCCCC(=O)O)cc3)CC[C@]3(C)C(CCC4[C@@]5(C)CC[C@H](O)C(C)(C)C5CC[C@]43C)C12` (stereo partly drawn) [Example 112], the IC50 under setting [1] is 317 nM. In the case of `C=C(C)[C@@H]1CC[C@]2(C(=O)NCCc3cccc(OCCCCC(=O)O)c3)CC[C@]3(C)C(CCC4[C@@]5(C)CC[C@H](O)C(C)(C)C5CC[C@]43C)C12` (stereo partly drawn) [Example 113], under setting [1], the IC50 is 721 nM.

With `C=C(C)[C@@H]1CC[C@]2(C(=O)N[C@@H](Cc3ccc(OCCCCC(=O)O)cc3)C(=O)O)CC[C@]3(C)C(CCC4[C@@]5(C)CC[C@H](O)C(C)(C)C5CC[C@]43C)C12` (stereo partly drawn) [Example 115], the IC50 under setting [1] was found to be 10000 nM.

Take `C=C(C)[C@@H]1CC[C@]2(C(=O)N[C@@H](Cc3ccc(OCCN4CCOC4=O)cc3)C(=O)O)CC[C@]3(C)C(CCC4[C@@]5(C)CC[C@H](O)C(C)(C)C5CC[C@]43C)C12` (stereo partly drawn) [Example 116]: the IC50 under setting [1] stood at 177 nM. Consider `C=C(C)[C@@H]1CC[C@]2(C(=O)NCc3cccc(N4CCN(Cc5cccc(C(=O)O)c5)CC4)c3)CC[C@]3(C)C(CCC4[C@@]5(C)CC[C@H](O)C(C)(C)C5CC[C@]43C)C12` (stereo partly drawn) [Example 118], for which, under setting [1], the IC50 worked out at 458 nM. In the case of `C=C(C)[C@@H]1CC[C@]2(C(=O)NCc3cccc(C(=O)NCc4ccc(OCCC(=O)O)c(C(=O)O)c4)c3)CC[C@]3(C)C(CCC4[C@@]5(C)CC[C@H](O)C(C)(C)C5CC[C@]43C)C12` (stereo partly drawn) [Example 119], the IC50 under setting [1] worked out at 1100 nM. For `C=C(C)[C@@H]1CC[C@]2(C(=O)NCc3cccc(C(=O)NCc4ccc(OCC(=O)O)c(C(=O)O)c4)c3)CC[C@]3(C)C(CCC4[C@@]5(C)CC[C@H](O)C(C)(C)C5CC[C@]43C)C12` (stereo partly drawn) [Example 120], under setting [1], the IC50 was determined as 620 nM.
